The structures appear in SMILES notation. Where only a bound is given, the exact number is not on record here.

Test [1] relates to Mycosphaerella graminicola (Septoria tritici—SEPTTR). Nature of the test: In vitro fungal growth inhibition, Mycosphaerella graminicola (SEPTTR). Type of test: cell-based. To be noted: Zymoseptoria tritici; 25 ppm in the growth medium; read-out: SEPTTR in vitro Growth Inhibition.
For test [2], the system named is Puccinia recondita—PUCCRT. Put plainly: Brown Rust of Wheat, in vivo whole plant, 24 Hour Protectant. To be noted: wheat plants sprayed at 100 ppm, inoculated after 24 hours, control of fungal infection vs untreated plants; for pest or weed control at 100 ppm: Puccinia, read-out: PUCCRT in vivo 1 Day Protectant.
In test [3] the test system is Leptosphaeria nodorum—LEPTNO. Nature of the test: Glume Blotch of Wheat, in vivo whole plant, 24 Hour Protectant. To be noted: wheat plants sprayed at 100 ppm, inoculated after 24 hours, control of fungal infection vs untreated plants; for pest or weed control at 100 ppm: Leptosphaeria, read-out: LEPTNO in vivo 1 Day Protectant.
Test [4] concerns Septoria tritici—SEPTTR. Nature of the test: Leaf Blotch of Wheat, in vivo whole plant, 24 Hour Protectant. To be noted: wheat plants sprayed at 100 ppm, inoculated after 24 hours, control of fungal infection vs untreated plants; for pest or weed control at 100 ppm: Zymoseptoria tritici, 24 h, read-out: SEPTTR in vivo 1 Day Protectant.
For test [5], the system named is Stagonospora nodorum (Leptosphaeria nodorum—LEPTNO). Put plainly: In vitro fungal growth inhibition, Stagonospora nodorum (LEPTNO). It is filed as cell-based. To be noted: Leptosphaeria; 25 ppm in the growth medium; read-out: LEPTNO in vitro Growth Inhibition.
The test system of test [6] is Erysiphe graminis—ERYSGT. Nature of the test: Powdery Mildew of Wheat, in vivo whole plant, 24 Hour Protectant. To be noted: Erysiphe; wheat plants sprayed at 100 ppm, inoculated after 24 hours; control of fungal infection vs untreated plants; read-out: ERYSGT in vivo 1 Day Protectant.
Test [7] relates to Magnaporthe grisea (Pyricularia oryzae—PYRIOR). Put plainly: microbe, parasite or virus in culture. It is filed as cell-based. To be noted: Pyricularia oryzae, read-out: PYRIOR in vitro Growth Inhibition.
Test [8] concerns Ustilago maydis (USTIMA). Put plainly: microbe, parasite or virus in culture. To be noted: Mycosarcoma maydis, read-out: USTIMA in vitro Growth Inhibition. It is filed as cell-based.
The subject of test [9] is Phytophthora infestans (PHYTIN). Put plainly: microbe, parasite or virus in culture. It is filed as cell-based. To be noted: Phytophthora infestans, read-out: PHYTIN in vitro Growth Inhibition.
In test [10] the test system is Phytophthora infestans—PHYTIN. Put plainly: whole plant or invertebrate. Type of test: in vivo. To be noted: for pest or weed control at 100 ppm: Phytophthora, in Solanum lycopersicum, 24 h, read-out: PHYTIN in vivo 1 Day Protectant.
Test [11] concerns Rhizoctonia solani (RHIZSO). Nature of the test: microbe, parasite or virus in culture. Type of test: cell-based. To be noted: Rhizoctonia solani, read-out: RHIZSO in vitro Growth Inhibition.

As a reminder, the inhibition is the relative decrease from the control value, in per cent. Take `CC(NC(=O)c1ccncc1O)c1ccc(C(F)(F)F)cc1` (centres unmarked) [Compound 510]: the inhibition at 25 ppm in test [1], in test [5], in test [7], in test [8], in test [9] and in test [11] was less than 80% each time. In addition, the pest or weed control at 100 ppm in test [2] is less than 25%; in test [3], less than 25%; in test [4], less than 25%; in test [6] it was less than 25%; in test [10], 25 to 74%.

Consider `CC(NC(=O)c1ccncc1O)c1ccc(OC(F)(F)F)cc1` (centres unmarked) [Compound 511], for which the inhibition at 25 ppm in test [1], in [5], in test [7], in [8], in test [9] and in test [11] was less than 80% in each case. The pest or weed control at 100 ppm in [2], in test [3], in test [4], in test [6] and in test [10] was less than 25% each time.

Turning to `CC(NC(=O)c1ccncc1O)c1ccc(Oc2ccccc2)cc1` (centres unmarked) [Compound 512], the inhibition at 25 ppm in test [1], in test [5], in [7], in test [8], in [9] and in [11] was less than 80% each time. Further, the pest or weed control at 100 ppm was less than 25% in test [2]; less than 25% in test [3]; less than 25% in test [4]; less than 25% in [6]; 25 to 74% in test [10].

With `Cc1cc(C)c(C(=O)N[C@H]2COC(=O)[C@H](Cc3ccccc3)[C@@H](OC(=O)C(C)C)[C@H](C)OC2=O)c(O)n1` [Compound 529], the inhibition at 25 ppm in test [1], in test [5], in test [7], in test [8], in [9] and in [11] was less than 80% each time. Also, the pest or weed control at 100 ppm is 25 to 74% in test [2]; 25 to 74% in test [3]; 25 to 74% in test [4]; less than 25% in test [6]; less than 25% in [10].

Turning to `CC(C)C(=O)O[C@H]1[C@H](C)OC(=O)[C@@H](NC(=O)c2nccnc2O)COC(=O)[C@@H]1Cc1ccccc1` [Compound 534], the inhibition at 25 ppm is greater than 80% in test [1]; greater than 80% in test [5]; greater than 80% in [7]; less than 80% in [8]; greater than 80% in [9]; less than 80% in test [11]. Moreover, the pest or weed control at 100 ppm in test [2] was 25 to 74%; in test [4] it was 25 to 74%; in [6], less than 25%; in test [10], less than 25%. Besides, the “LEPTNO in vivo 1 Day Protectant” value in [3] was “+ +”.

With `CC(C)C(=O)O[C@H]1[C@H](C)OC(=O)[C@@H](NC(=O)c2nnc(O)nc2O)COC(=O)[C@@H]1Cc1ccccc1` [Compound 544], the inhibition at 25 ppm in test [1], in test [5], in test [7], in [8], in test [9] and in [11] was less than 80% each time. The pest or weed control at 100 ppm in test [2] was 25 to 74%; in [3], 25 to 74%; in test [4], 25 to 74%; in [6], less than 25%; in [10] it was less than 25%.

Turning to `CSc1nnc(C(=O)N[C@H]2COC(=O)[C@H](Cc3ccccc3)[C@@H](OC(=O)C(C)C)[C@H](C)OC2=O)c(O)n1` [Compound 547], the inhibition at 25 ppm is less than 80% in test [1]; less than 80% in [5]; less than 80% in test [7]; less than 80% in test [8]; greater than 80% in test [9]; less than 80% in test [11]. Further, the pest or weed control at 100 ppm in test [2] was 25 to 74%; in [3], less than 25%; in test [4], 25 to 74%; in test [6], less than 25%; in test [10], 25 to 74%.

With `CC(C)C(=O)O[C@H]1[C@H](C)OC(=O)[C@@H](NC(=O)c2nscc2O)COC(=O)[C@@H]1Cc1ccccc1` [Compound 550], the inhibition at 25 ppm is greater than 80% in test [1]; greater than 80% in test [5]; greater than 80% in [7]; less than 80% in [8]; greater than 80% in test [9]; less than 80% in [11]. The pest or weed control at 100 ppm was 25 to 74% in [2], 25 to 74% in test [4], 25 to 74% in test [6] and less than 25% in test [10]. The “LEPTNO in vivo 1 Day Protectant” value in test [3] is “+ +”.

Turning to `O=C(Nc1ccc(Oc2cccc(C(F)(F)F)c2)cc1)c1nscc1O` [Compound 551], the inhibition at 25 ppm in [1], in test [5], in [7], in test [8], in test [9] and in test [11] was less than 80% in each case. Moreover, the pest or weed control at 100 ppm in test [2] was less than 25%; in [3], 25 to 74%; in test [4], 25 to 74%; in test [6] it was 25 to 74%; in [10], less than 25%.

With `CC(C)C(=O)O[C@H]1[C@H](C)OC(=O)[C@@H](NC(=O)c2nsnc2O)COC(=O)[C@@H]1Cc1ccccc1` [Compound 553], the inhibition at 25 ppm in test [1], in [5], in test [7], in test [8], in test [9] and in test [11] was greater than 80% in each case. The pest or weed control at 100 ppm in test [2], in test [4] and in [6] was 25 to 74% throughout. Besides, the “LEPTNO in vivo 1 Day Protectant” value in [3] is “+ +”. Besides, the “PHYTIN in vivo 1 Day Protectant” value in test [10] (tomato plants sprayed at 100 ppm, inoculated after 24 hours, control of fungal infection vs untreated plants) was “+ +”.

Turning to `O=C(Nc1ccc(Oc2cccc(C(F)(F)F)c2)cc1)c1cscc1O` [Compound 555], the inhibition at 25 ppm in test [1] is greater than 80%; in test [5] it was greater than 80%; in [7], greater than 80%; in test [8], less than 80%; in test [9], greater than 80%; in [11], greater than 80%. Besides, the pest or weed control at 100 ppm in test [2] was less than 25%; in test [3] it was 25 to 74%; in test [4] it was 25 to 74%; in [6], less than 25%; in [10], less than 25%.

As for `CC(=O)Oc1cccnc1C(=O)N[C@H]1COC(=O)[C@H](Cc2ccccc2)[C@@H](OC(=O)C(C)C)[C@H](C)OC1=O` [Compound 568], the inhibition at 25 ppm in test [1] is greater than 80%; in test [5] it was greater than 80%; in test [7], less than 80%; in test [8], less than 80%; in test [9] it was less than 80%; in [11] it was less than 80%. Moreover, the “PUCCRT in vivo 1 Day Protectant” value in [2] is given as “+ +”. Moreover, in test [3], the “LEPTNO in vivo 1 Day Protectant” value was “+ +”. The “SEPTTR in vivo 1 Day Protectant” value in test [4] was “+ +”. Moreover, the pest or weed control at 100 ppm in test [6] and in test [10] was less than 25% throughout.

With `COCCC(=O)Oc1cccnc1C(=O)N[C@H]1COC(=O)[C@H](Cc2ccccc2)[C@@H](OC(=O)C(C)C)[C@H](C)OC1=O` [Compound 569], the inhibition at 25 ppm was greater than 80% in [1]; greater than 80% in test [5]; greater than 80% in test [7]; less than 80% in test [8]; less than 80% in test [9]; less than 80% in test [11]. Besides, the “PUCCRT in vivo 1 Day Protectant” value in test [2] was “+ +”. Also, the “LEPTNO in vivo 1 Day Protectant” value in test [3] was “+ +”. For the same compound, the “SEPTTR in vivo 1 Day Protectant” value in [4] was “+ +”. For the same compound, the pest or weed control at 100 ppm in test [6] was less than 25%; in test [10], 25 to 74%.

(Values after patent publication US6706740B2, “Fungicidal heterocyclic aromatic amides and their compositions, methods of use and preparation” (Dow AgroSciences LLC, priority 1999, dated 2004).)
